In US20230390268A1 (priority 2022, published 2023):
“Also recorded” adds a separate entry of the source. Read-outs that look alike come from different tables or passages of the source.

Legend:
[1] = system: SARS-CoV-2; format: cell-based
[2] = system: IL8; assay: IL8 transcript levels by qPCR in SARS-CoV-2 infected Calu3 cells; format: cell-based, human; settings: Calu3 cells infected with SARS-CoV-2
[3] = system: IL6; assay: IL6 transcript levels by qPCR in SARS-CoV-2 infected Calu3 cells; format: cell-based, human; settings: Calu3 cells infected with SARS-CoV-2
[4] = system: Vesicular stomatitis virus (VSV); format: cell-based
[5] = system: TNFα; assay: TNFα transcript levels by qPCR in SARS-CoV-2 infected Calu3 cells; format: cell-based, human; settings: Calu3 cells infected with SARS-CoV-2
[6] = system: ASK1/p38MAPK; format: cell-based, human
[7] = system: Herpes Simplex Virus (HSV); format: cell-based
[8] = system: HIV-1 NL4-3 GFP; format: cell-based
[9] = system: THF cells; assay: Cell viability MTT assay; settings: 50 μM, 24 hr, compared with DMSO
[10] = system: Vaccinia virus (VacV); format: cell-based
[11] = system: HSV; assay: HSV-GFP replication in CHL-11 hamster cell line; format: cell-based; settings: CHL-11 cells, HSV-GFP MOI of 1, 0.1 or 0.01, Selonsertib 25 or 50 μM, 24 h
[12] = system: autophagy; format: cell-based, human; settings: Calu3 and THF cells infected with VSV, Selonsertib 50 μM, 24 hr
[13] = system: SARS-CoV-2/SB3; parameters: species or system Syrian Hamster; settings: in vivo
[14] = system: mTORC1; format: cell-based, human; settings: Calu3 and THF cells infected with VSV, Selonsertib 50 μM, 24 hr, versus DMSO+VSV
[15] = system: JNK; format: cell-based, human
[16] = system: SARS-CoV-2; format: cell-based; remark: listed apart in the source
[17] = system: SARS-CoV-2; format: cell-based; remark: listed apart in the source
[18] = system: Calu3 cells; format: cell-based, human; settings: 1 MOI of VSV, Selonsertib 50 μM, 24 hr
[19] = system: VSV; format: cell-based
[20] = system: VSV; format: cell-based; remark: listed apart in the source

Compound	SARS-CoV-2 replication [1]	levels of IL8 [2]	levels of IL6 [3]	VSV replication [4]	levels of TNFα [5]	GFP-intensity of VSV [4]	duration of effect on viral replication after aspirating drugs [4]	GFP-intensity of HSV [7]	HIV-1-GFP replication [8]	cell viability [9]	GFP-intensity of VacV [10]	also measured
Cc1ccc(-n2nc(C(C)(C)C)cc2NC(=O)Nc2ccc(OCCN3CCOCC3)c3ccccc23)cc1 [BIRB, Doramapimod]	no antiviral properties	diminish	diminish	no obvious effect; also recorded: no noticeable effect	diminish							
O=C(Nc1cccc(-c2nncn2C2CC2)c1)c1cc(-n2cnc(C3CC3)c2)ccn1 [GS-444217]	drastically reduces	diminish	diminish		diminish	significantly abolish	24 h	significantly abolish	abrogates replication	healthy and safe; also recorded: no difference	significantly abolish	duration of effect on phosphorylation of ASK1/p38MAPK after aspirating drugs ([6]; pretreatment 24 hours, drugs aspirated prior VSV infection, Calu3 cells): 24 h
Cc1cc(F)c(C(=O)Nc2cccc(-c3nncn3C(C)C)n2)cc1-n1cnc(C2CC2)c1 [Selonsertib]	drastically reduces	diminish	diminish	gradually decreased	diminish	significantly abolish	24 h	significantly abolish	abrogates replication	healthy and safe; also recorded: no difference	significantly abolish	antiviral effect against HSV in hamster cell line [11]: antiviral properties; autophagy marker, LC3II [12]: not affected; percentage of weight loss ([13]; hamster): the most; IHC staining against SARS-CoV2 nucleocapsid in the hamster lung tissue [13]: dominated a spatial area of the lung tissue; SARS-CoV-2 replication in hamster tissue [13]: augmented; Phosphorylation levels of p70 (S6K1) [14]: not changed; duration of effect on phosphorylation of ASK1/p38MAPK after aspirating drugs [6]: 24 h; time after adding drug at which p38MAPK phosphorylation starts to weaken [6]: 2 h; JNK phosphorylation [15]: reduced; level of SARS-CoV2 nucleocapsid [16]: remarkably increased; SARS-CoV-2 nucleoprotein in infected HAP1 KO cells treated or not [17]: no significant difference; time after adding drug at which VSV replication starts to weaken [4]: 2 h; changes in cell morphology caused by VSV replication [18]: remarkably alleviates; also recorded: relieved; antiviral effect against VSV in hamster cell line [19]: antiviral properties; VSV infection in HAP1 KO cells [20]: still able to swipe the leftover of VSV infection
